Structures are written as SMILES. Where “and” joins values, the source holds several entries; their conditions need not be identical. Equal values may be shown once.

The subject of series [1] is NIH-3T3 cells. The series can be described thus: Post-thaw viability of cryopreserved NIH-3T3 cells (CCK-8), Example 1. The note with it: for Post-thaw viability, 24 hours post thaw / Post-thaw viability, 48 hours post-thaw: Table 1. Format: cell-based. On the procedure: Cryopreservation protocol. […] Discarded 95% of the old media and added 0.5 mL new DMEM (pH=7.4) with 10% FBS and 400 mM trehalose (filtered with 0.22 μm filter) and re-suspended the cells. • Transferred the cell culture to cryo-tube and stored the tubes at −80° C. for 3 days. • Thawed the cells at 37° C. in a water bath until ice melted. • Counted the cell density in each cryo-tube with cell counter. • Re-cultured the cells in 96-well plate with fresh DMEM (PH=7.4) with 10% FBS. (while keeping cell density the approximately the same for each well). • Used CCK-8 kit to test the post-thaw viability after certain time.

Series [2] has as its system NIH-3T3 cells. As to the kind of experiment: Post-thaw total cell recovery of cryopreserved cells (trypan blue exclusion). Type of series: cell-based. The note with it: ±SEM. The protocol: The delivery of sugar alcohols into cells makes it possible to turn these molecules into intracellular CPAs. […] Total post-thaw cell recovery, defined as the ratio (%) of post-thaw live cells to the number of initially frozen live cells, which provides a more accurate measure of cryoprotective outcome than cell viability, was used to assess the cryoprotective effects of the diesters.
Systematic studies were then performed by incubating the cells (1) with each of diesters 1-4 (10 mM), (2) with unmodified sorbitol, mannitol, xylitol, or erythritol (10 mM), and (3) in medium without any of the diesters or sugar alcohols, at 37° C. for 48 h. The cells treated with diesters 1-4 and the four sugar alcohols were then transferred to freezing media consisting of DMEM, 10% FBS and 400 mM trehalose. The cells incubated with only the medium were divided into two portions, one being directly transferred to the freezing medium containing 400 mM trehalose (control 1) and the other being placed in a different freezing medium consisting of DMEM, 10% FBS and 5% DMSO but without trehalose (control 2). After being frozen at −80° C. for 72 h, the cells were thawed in a warm water bath at 37° C. until ice melted. The post-thaw cells were either immediately analyzed for their survival or were cultured in growth media (DMEM with 10% FBS) for 24 h and 48 h before being analyzed.
Incubation (for cryopreservation). NIH/3T3 cells were seeded into cell culture treated plates (100 mm) at a density of 2×10^4 cells/mL (10 mL/plate), allowed to adhere overnight and then incubated with different sample solutions (10 mL) for 48 hours at 37° C. under 5% CO2. Control cells were incubated with growth medium.
Cryopreservation. At the end of the incubation, the cells were rinsed with PBS (2 mL) and detached using 0.25% trypsin-EDTA (3 mL). The cells were pelleted (200×g, 5 min) and resuspended in growth medium with 400 mM trehalose except for the control-2 group. For control-2 group, cells were resuspended in growth medium with 5% DMSO (v/v). An aliquot of cells of each group was then removed for counting by a DeNovix Celldrop cell counter to obtain prefreeze number of viable cells. The remaining cell suspension was transferred into a 2 mL cryogenic vial. The vials were directly transferred to −80° C. freezer without controlling cooling rate and stored at −80° C. freezer for 3 days. To thaw, cryogenic vials were removed from −80° C. freezer and suspended in a 37° C. water bath until ice melt. To the contents of each vial 1 mL growth medium was added and centrifuged (200×g , 5 min). The supernatant was discarded and cell pellet was resuspended in 1 mL growth cell medium. An aliquot of cell suspension of each group was then removed for counting with a DeNovix Celldrop cell counter to obtain the number of viable cells at 0-hr post-thaw. The remaining cell suspension was split equally and resuspended into two cell culture treated plates (100 mm) with 10 mL growth medium in each plate. The plates were then maintained for either 24 hours or 48 hours at 37° C. under 5% CO2. After being cultured for either 24 hours or 48 hours, the cells were rinsed with PBS (2 mL) and detached using 0.25% trypsin-EDTA (3 mL). The cells were pelleted (200×g, 5 min) and resuspended in growth medium. The cell suspension was then analyzed by DeNovix Celldrop cell counter to obtain number of viable cells at either 24-hr or 48-hr post-thaw.
Trypan Blue Exclusion Assay. For all time points, a sample of cells was mixed 1:1 in 0.4% trypan blue and counted using a DeNovix Celldrop. Cell recovery was calculated as the ratio of viable cells to the number of cells initially frozen.

The test system of series [3] is 3T3 cells. As to the kind of experiment: Cryopreservation, post-thaw recovery rate, Example 3. Type of series: cell-based. The note with it: incubated with medium only; frozen −80° C. in medium with 5% DMSO. On the procedure: Cryopreservation: The cryopreservation effects of EGL-3Pro and EGL-3Phe were tested on 3T3 cells. The cells were incubated with 5 mM or 10 mM EGL-3Pro or 0.5 mM EGL-3Phe or medium only (two control groups) for 72 hours. After incubation, the cells were detached by treating […] pelleted by centrifuging (200×g). The cells were then resuspended in medium with 400 mM trehalose or 5% DMSO (for control 2 group) in cryovials and a small portion of cell suspension were used for counting pre-freeze cell number. The vials were directly put in −80° C. freezer and stored for at least 3 days. The cells were thawed in 37° C. water bath until ice melt, and resuspended in 10 mL fresh medium and pelleted by centrifuging (200×g). The cells were then resuspended in 1 mL fresh medium and counted by cell counter. The recovery rate was obtained by dividing post-thaw lived cell number by pre-freeze lived cell number.

Series [4] concerns NIH-3T3 cells. As to the kind of experiment: Live/dead fluorescence microscopy of post-thaw cells (calcein-AM / ethidium homodimer-1). Type of series: cell-based. The note with it: 24 h post-thaw; incubated with 10 mM for 48 h, frozen in media with 400 mM trehalose (FIG. 14). On the procedure:
DIC and Fluorescence images capturing. NIH/3T3 cells were treated as the same as for cryopreservation experiment and were thawed in a 37° C. water bath until ice melt. Cells in each vial were then pelleted (200×g, 5 min), re-suspended in 1 mL fresh growth medium and plated into 96 well plate and grown for 24 hours. Each well was washed with sterile PBS (100 μL). Sterile PBS (200 μL) containing 2 μM calcein-AM and 4 μM ethidium homodimer-1 (EthD-1) was then added to each well. The 96-well plate was then incubated in a CO2 incubator at 37° C. for 30 min. Fresh cells without freezing were plated at similar density in 96-well plate as comparison. DIC and fluorescence microscopy images were captured at 509 and 580 nm on Axioplan 2 fluorescent microscope (Zeiss [Carl Zeiss], Thornwood, NY) with an Axiocam MRm camera (Zeiss). Axiovision 4 software (Zeiss) was used for image acquisition. Digital images were processed with ImageJ (imagej.nih.gov/ij/).

The test system of series [5] is NIH-3T3 cells. As to the kind of experiment: Cytotoxicity, CCK-8 cell viability after 48 h incubation.
Method: Cytotoxicity assays were performed by exposing NIH-3T3 cells to the diesters. Cell viability was determined by using Cell Counting Kit-8 (CCK-8) reagent and a BioTek microplate reader to count the numbers of live and dead cells.
NIH/3T3 cells were seeded into 96-well plates (Fisher brand) at a density of 8,000 cells in 150 μL growth medium per well. The cells were incubated for 24 hours at 37° C. with 5% CO2. After 24 hours all medium was aspired one row at a time and treated with various concentrations of each compound (10 mM, 5 mM, 1 mM, 0.5 mM and 0.1 mM) or carboxylic acid/NaOH (10 mM/5 mM, 5 mM/2.5 mM). The control cells were treated with fresh medium only. The cells were then incubated again for 48 hours at 37° C. with 5% CO2. After incubation, all medium was aspired and replaced with fresh medium and 10% (v/v) CCK-8 reagent and returned to incubate at 37° C. with 5% CO2 for 2 hours. Cell viability was then calculated from the OD value read by a plate reader (Biotek Synergy H1) at wavelength of 450 nm.
[6] abbreviates: incubated with 10% DMSO, reference set as 100%.
[7] abbreviates: Table 2, incubated with 10% DMSO, reference set as 100%.
The mark [8] stands for this setting: Table 3, incubated with 10% DMSO, reference set as 100%.
Where [9] appears, read: incubated with media only, frozen in media containing 5% DMSO without trehalose.
The mark [10] stands for this setting: incubated with 10 mM for 48 h, frozen −80° C. 72 h in media with 400 mM trehalose.
Where [11] appears, read: incubated at 5 mM without DMSO, frozen −80° C. 72 hours, freezing media with 400 mM trehalose, 10% DMSO set as 100%.
[12] abbreviates: incubated at 10 mM without DMSO, frozen −80° C. 72 hours, freezing media with 400 mM trehalose, 10% DMSO set as 100%.
Setting [13] is: Table 2, incubated 36 hours at 5 mM without DMSO, frozen −80° C. 72 hours, 400 mM trehalose, 10% DMSO set as 100%.
Where [14] appears, read: Table 2, incubated 36 hours at 10 mM without DMSO, frozen −80° C. 72 hours, 400 mM trehalose, 10% DMSO set as 100%.
Setting [15] is: Table 3, incubated 36 hours at 5 mM without DMSO, frozen −80° C. 72 hours, 400 mM trehalose, 10% DMSO set as 100%.
The mark [16] stands for this setting: Table 3, incubated 36 hours at 10 mM without DMSO, frozen −80° C. 72 hours, 400 mM trehalose, 10% DMSO set as 100%.

Regarding `C[S+](C)[O-]` [DMSO, dimethyl sulfoxide, reference compound], in series [1] (setting [6]), the “Post-thaw viability, 24 hours post thaw” value stood at 100.0 ± 11.8% and the “Post-thaw viability, 48 hours post-thaw” value is given as 100.0 ± 4.0%. In series [1] (setting [7]), the “Post-thaw viability (%), 24 hours post thaw” value worked out at 100.0 ± 3.6% and the “Post-thaw viability (%), 48 hours post-thaw” value is listed as 100.0 ± 13.4%. Also, in series [1] (setting [8]), the “Post-thaw viability (%), 24 hours post thaw” value came to 100.0 ± 13.5% and the “Post-thaw viability (%), 48 hours post-thaw” value is reported as 100.0 ± 5.3%. Further, in series [2] (setting [9]), the “Post-thaw recovery (%) 0-hr” value amounted to 84.5 ± 3.8%, the “Post-thaw recovery (%) 24-hr” value stood at 93.9 ± 2.4% and the “Post-thaw recovery (%) 48-hr” value is 196.4 ± 5.7%. Besides, in series [3], the “0-hour post thaw recovery (%)” value was 77.9 ± 3.8%.
As to `CCC(=O)OC[C@@H](O)[C@@H](O)COC(=O)CC` [EryPr2], in series [2] (setting [10]), the “Post-thaw recovery (%) 0-hr” value is 48% and 47.9 ± 3.4%; the “Post-thaw recovery (%) 24-hr” value amounted to 42.6 ± 2.6%; the “Post-thaw recovery (%) 48-hr” value is 72% and 71.6 ± 3.9%.
Take `OC[C@@H](O)[C@@H](O)CO` [Erythritol, erythritol, reference compound]: in series [2] (setting [10]), the “Post-thaw recovery (%) 0-hr” value turned out to be 33.5 ± 2.7%, the “Post-thaw recovery (%) 24-hr” value worked out at 26.0 ± 0.6% and the “Post-thaw recovery (%) 48-hr” value amounted to 42.3 ± 1.2%.
Regarding `O=C(OCC(COC(=O)[C@@H]1CCCN1)OC(=O)[C@@H]1CCCN1)[C@@H]1CCCN1` [GLC3P], in series [1] (setting [11]), the “Post-thaw viability, 24 hours post thaw” value is listed as 130.9 ± 5.3% and the “Post-thaw viability, 48 hours post-thaw” value came out at 143.8 ± 4.2%. In series [1] (setting [12]), the “Post-thaw viability, 24 hours post thaw” value turned out to be 174.7 ± 6.9% and the “Post-thaw viability, 48 hours post-thaw” value was determined as 220.4 ± 5.5%.
`OC[C@@H](O)[C@@H](O)[C@H](O)[C@H](O)CO` [Mannitol, mannitol, reference compound]: in series [2] (setting [10]), the “Post-thaw recovery (%) 0-hr” value was determined as 24.1 ± 1.8%, the “Post-thaw recovery (%) 24-hr” value was determined as 20.8 ± 1.5% and the “Post-thaw recovery (%) 48-hr” value is 41.5 ± 3.0%. Moreover, the “Post-thaw viability/recovery in fluorescence microscopy images” value in series [4] was “does not result in higher post-thaw viability than cells treated with media only”.
On to `O=C(OC[C@H](OC(=O)[C@@H]1CCCN1)[C@@H](OC(=O)[C@@H]1CCCN1)[C@H](OC(=O)[C@@H]1CCCN1)[C@@H](COC(=O)[C@@H]1CCCN1)OC(=O)[C@@H]1CCCN1)[C@@H]1CCCN1` [SBT6P], for which, in series [1] (setting [13]), the “Post-thaw viability (%), 24 hours post thaw” value is given as 33.3 ± 1.4% and the “Post-thaw viability (%), 48 hours post-thaw” value was 66.2 ± 2.0%. For the same compound, in series [1] (setting [14]), the “Post-thaw viability (%), 24 hours post thaw” value was determined as 34.0 ± 3.5% and the “Post-thaw viability (%), 48 hours post-thaw” value is given as 69.6 ± 6.5%.
Turning to `CCCC(=O)OC[C@@H](O)[C@@H](O)[C@H](O)[C@@H](O)COC(=O)CCC` [SorbBa2], in series [1] (setting [15]), the “Post-thaw viability (%), 24 hours post thaw” value is reported as 113.4 ± 9.5% and the “Post-thaw viability (%), 48 hours post-thaw” value is listed as 143.3 ± 7.4%. Also, in series [1] (setting [16]), the “Post-thaw viability (%), 24 hours post thaw” value was determined as 150.4 ± 1.5% and the “Post-thaw viability (%), 48 hours post-thaw” value stood at 211.8 ± 2.2%.
In the case of `OC[C@@H](O)[C@@H](O)[C@H](O)[C@@H](O)CO` [Sorbitol, sorbitol, reference compound], in series [2] (setting [10]), the “Post-thaw recovery (%) 0-hr” value is recorded as 32.8 ± 3.2%, the “Post-thaw recovery (%) 24-hr” value worked out at 28.4 ± 2.1% and the “Post-thaw recovery (%) 48-hr” value is 50.8 ± 3.5%. The “Post-thaw viability/recovery in fluorescence microscopy images” value in series [4] was “does not result in higher post-thaw viability than cells treated with media only”.
As to `CCC(=O)OC[C@@H](O)[C@H](O)[C@@H](O)COC(=O)CC` [XylPr2], in series [2] (setting [10]), the “Post-thaw recovery (%) 0-hr” value is 52.1 ± 4.8%, the “Post-thaw recovery (%) 24-hr” value is given as 49.7 ± 1.1% and the “Post-thaw recovery (%) 48-hr” value amounted to 90.0 ± 4.3%.
In the case of `OC[C@@H](O)[C@H](O)[C@@H](O)CO` [Xylitol, xylitol, reference compound], in series [2] (setting [10]), the “Post-thaw recovery (%) 0-hr” value is 24.6 ± 2.4%, the “Post-thaw recovery (%) 24-hr” value was 22.1 ± 2.1% and the “Post-thaw recovery (%) 48-hr” value is 44.3 ± 4.7%.
Turning to `CCCC(=O)O` [butyric acid], the “Cell viability relative to control groups” value in series [5] (at 5 mM) is on record as approximately 50%; in series [5] (at 10 mM), approximately 40%.
Turning to `CCC(=O)O` [propionic acid], in series [5] (up to 10 mM), the “Cell viability relative to control groups” value is reported as approximately 70%.

The values are drawn from US20240065261A1, “PENETRATING CRYOPROTECTION AGENTS AND METHODS OF MAKING AND USING SAME” (The Research Foundation for The State University of New York, priority 2020, published 2024).
